Experimental data from patent US9951032B2, “Antibacterial compounds” (Janssen Sciences Ireland UC, priority 2012, dated 2018).
In brackets after ≈: the same amount, converted by molar mass. Where two headings read alike, the source gives them in different places.

What was measured:
[1] = tested on: Mycobacterium tuberculosis (strain H37RV); assay: Time kill assay (kill kinetics), broth dilution method; type: cell-based
[2] = tested on: Mycobacterium tuberculosis (strain H37RV); assay: MIC90 determination for testing compounds against M. tuberculosis; type: cell-based

SMILES: O=C(Nc1nc2cc(Cl)ccc2o1)NC12CC3CC(CC(C3)C1)C2
- melting point: > 250 °C

SMILES: O=C(Nc1nc2c(F)cc(F)cc2s1)NC12CC3CC(CC(C3)C1)C2 [Compound 1]
- log CFU/ml ([1]; 0.5 μg/ml, day 0): 6.35 log CFU/ml
- log CFU/ml ([1]; 0.5 μg/ml, day 1): 5.57 log CFU/ml
- log CFU/ml ([1]; 0.5 μg/ml, day 4): 2.00 log CFU/ml
- log CFU/ml ([1]; 0.5 μg/ml, day 7): 2.00 log CFU/ml
- log CFU/ml ([1]; 0.5 μg/ml, day 14): 2.00 log CFU/ml
- log CFU/ml ([1]; 0.5 μg/ml, day 21): 2.00 log CFU/ml
- log CFU/ml ([1]; 5 μg/ml, day 0): 6.35 log CFU/ml
- log CFU/ml ([1]; 5 μg/ml, day 1): 6.15 log CFU/ml
- log CFU/ml ([1]; 5 μg/ml, day 4): 3.08 log CFU/ml
- log CFU/ml ([1]; 5 μg/ml, day 7): 2.00 log CFU/ml
- log CFU/ml ([1]; 5 μg/ml, day 14): 2.00 log CFU/ml
- log CFU/ml ([1]; 5 μg/ml, day 21): 2.00 log CFU/ml
- MIC90 ([2]; Mycobacterium tuberculosis, H37RV, LV12076, 10% human serum): 1 µg/mL (≈ 2.75 µM)
- MIC90 ([2]; Mycobacterium tuberculosis, H37RV, LV12086, 20% human serum): 1 µg/mL (≈ 2.75 µM)
- MIC90 ([2]; Mycobacterium tuberculosis, H37RV, LV12086, no human serum): 0.25 µg/mL (≈ 0.688 µM)
- MIC90 ([2]; Mycobacterium tuberculosis, H37RV, LV12076, no human serum): 0.5 µg/mL (≈ 1.38 µM)
- melting point: > 260 °C

SMILES: NNC(=O)c1ccncc1 [Isoniazid, reference compound]
- log CFU/ml ([1]; 1 μg/ml, day 0): 6.35 log CFU/ml
- log CFU/ml ([1]; 1 μg/ml, day 1): 3.57 log CFU/ml
- log CFU/ml ([1]; 1 μg/ml, day 4): 2.00 log CFU/ml
- log CFU/ml ([1]; 1 μg/ml, day 7): 2.00 log CFU/ml
- log CFU/ml ([1]; 1 μg/ml, day 14): 2.00 log CFU/ml
- log CFU/ml ([1]; 1 μg/ml, day 21): 2.00 log CFU/ml
- MIC90 ([2]; LV12076, 10% human serum): 0.03 µg/mL (≈ 0.219 µM)
- MIC90 ([2]; LV12086, 20% human serum): 0.03 µg/mL (≈ 0.219 µM)
- MIC90 ([2]; LV12086, no human serum): 0.03 µg/mL (≈ 0.219 µM)
- MIC90 ([2]; Mycobacterium tuberculosis, H37RV, LV12076, no human serum, read-out: MIC90): 0.03 µg/mL (≈ 0.219 µM)
